# Measured values reported in patent US6737383B1, “Herbicidal oxadiazolidines” (priority 1999, dated 2004).
# Legend:
# bamyardgrass = experiment: Test B flood test barnyardgrass; format: in vivo, Echinochloa crus-galli
# Outline: (§1)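 Plants were grown to the 2-leaf stage before treatment with test chemical, then held in a greenhouse for twelve to sixteen days. Injury was visually rated against untreated controls on a 0–10 scale, where 0 is no effect and 10 is complete control.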
# rice = experiment: Test B flood test rice; format: in vivo, Oryza sativa
# Outline: as §1
# purple nutsedge = experiment: Test B pre/postemergence purple nutsedge; format: in vivo, Cyperus rotundus
# Outline: (§2)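 Response is a visual 0-to-10 score relative to untreated plants, where 0 means no effect and 10 means complete control, taken twelve to sixteen days after application. Treatments went onto soil at planting and onto foliage of 1- to 4-leaf plants, using a surfactant-containing non-phytotoxic solvent.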
# giant foxtail = experiment: Test B pre/postemergence giant foxtail; format: in vivo, Setaria faberii
# Outline: as §2
# morningglory = experiment: Test B pre/postemergence morningglory; format: in vivo, Ipomoea hederacea
# Outline: as §2
# duck salad = experiment: Test B flood test duck salad; format: in vivo, Heteranthera limosa
# Outline: as §1
# corn = experiment: Test B pre/postemergence corn; format: in vivo, Zea mays
# Outline: as §2
# crabgrass = experiment: Test B pre/postemergence crabgrass; format: in vivo, Digitaria sanguinalis
# Outline: as §2
# wild oat = experiment: Test B pre/postemergence wild oat; format: in vivo, Avena fatua; settings: for Plant response rating, Wild oats: Postemergence
# Outline: as §2
# rape = experiment: Test B pre/postemergence rape; format: in vivo, Brassica napus
# Outline: as §2
# wheat = experiment: Test B pre/postemergence wheat; format: in vivo, Triticum aestivum; settings: for Plant response rating, Wheat: Postemergence
# Outline: as §2
# surinam grass = experiment: Test B pre/postemergence surinam grass; format: in vivo, Brachiaria decumbens
# Outline: as §2
# sugar beet = experiment: Test B pre/postemergence sugar beet; format: in vivo, Beta vulgaris; settings: for Plant response rating, Sugarbeets: Postemergence
# Outline: as §2
# cocklebur = experiment: Test B pre/postemergence cocklebur; format: in vivo, Xanthium strumarium
# Outline: as §2
# pigweed = experiment: Test B pre/postemergence pigweed; format: in vivo, Amaranthus retroflexus; settings: for Plant response rating, Redroot pigweed: Postemergence
# Outline: as §2
# smallflower flatsedge = experiment: Test B flood test smallflower flatsedge; format: in vivo, Cyperus difformis
# Outline: as §1
# [1] = Rate 62 g/ha, flood test species, Pre-emergence, visual evaluation after twelve to sixteen days
# [2] = Rate 125 g/ha, under heading Pre-emergence, flood test species, visual evaluation after twelve to sixteen days
# [3] = Rate 250 g/ha, Pre-emergence (flood test species), scale 0 to 10, 0 is no effect, 10 is complete control
# [4] = Rate 500 g/ha, Pre-emergence section of Table B, 0 to 10 scale (0 no effect, 10 complete control)
# [5] = Postemergence, Rate 62 g/ha, scale of 0 to 10, 0 is no effect, 10 is complete control
# [6] = Postemergence, Rate 125 g/ha, scale 0 to 10, 0 is no effect, 10 is complete control
# [7] = Postemergence, Rate 500 g/ha, scale of 0 to 10 where 0 is no effect and 10 is complete control
# [8] = Preemergence, Rate 62 g/ha, scale 0 to 10 (0 no effect, 10 complete control)
# [9] = Preemergence, Rate 125 g/ha, scale 0 to 10, 0 is no effect, 10 is complete control
# [10] = Preemergence, Rate 500 g/ha, scale of 0 to 10 where 0 is no effect and 10 is complete control
# [11] = Rate 250 g/ha, Postemergence, scale of 0 to 10 where 0 is no effect and 10 is complete control
# [12] = Rate 500 g/ha, scale of 0 to 10 where 0 is no effect and 10 is complete control
# [13] = Rate 250 g/ha, scale of 0 to 10 where 0 is no effect and 10 is complete control
smiles,measurement,setting,value
CC(C)N(C(=O)n1oc(=O)n(C(C)C(=O)c2ccccc2)c1=O)c1ccccc1 (stereo not shown) [Compound 570],"Plant response rating, Barnyardgrass (0 to 10 scale, 0 is no effect, 10 is complete control)",bamyardgrass; [1],0
same,"Barnyardgrass plant response rating (0 to 10 scale, 0 is no effect, 10 is complete control)",bamyardgrass; [2],0
same,Barnyardgrass plant response rating,bamyardgrass; [3],0
same,Barnyardgrass plant response rating,bamyardgrass; [4],0
same,"Plant response rating, Rice (0 to 10 scale, 0 is no effect, 10 is complete control)",rice; [1],0
same,"Rice plant response rating (0 to 10 scale, 0 is no effect, 10 is complete control)",rice; [2],0
same,Rice plant response rating,rice; [3],0
same,Rice plant response rating,rice; [4],0
same,Nutsedge plant response rating,purple nutsedge; [5],0
same,Nutsedge plant response rating,purple nutsedge; [6],0
same,"Plant response rating, Nutsedge",purple nutsedge; [7],0
same,Nutsedge plant response rating,purple nutsedge; [8],0
same,Nutsedge plant response rating,purple nutsedge; [9],0
same,Nutsedge plant response rating,purple nutsedge; [10],0
same,"Plant response rating, Nutsedge",purple nutsedge; [11],0
same,Giant foxtail plant response rating,giant foxtail; [5],0
same,Giant foxtail plant response rating,giant foxtail; [6],0
same,"Plant response rating, Giant foxtail",giant foxtail; [7],0
same,Giant foxtail plant response rating,giant foxtail; [8],0
same,Giant foxtail plant response rating,giant foxtail; [9],0
same,Giant foxtail plant response rating (0 to 10 scale),"giant foxtail; Preemergence, Rate 250 g/ha",9
same,Giant foxtail plant response rating,giant foxtail; [10],9
same,"Plant response rating, Giant foxtail",giant foxtail; [11],0
same,Morningglory plant response rating,morningglory; [5],4
same,Morningglory plant response rating,morningglory; [6],10
same,"Plant response rating, Morningglory",morningglory; [7],10
same,Morningglory plant response rating,morningglory; [8],0
same,Morningglory plant response rating,morningglory; [9],0
same,Morningglory plant response rating (0 to 10 scale),"morningglory; Preemergence, Rate 250 g/ha",0
same,Morningglory plant response rating,morningglory; [10],0
same,"Plant response rating, Morningglory",morningglory; [11],10
same,"Plant response rating, Ducksalad (0 to 10 scale, 0 is no effect, 10 is complete control)",duck salad; [1],0
same,"Ducksalad plant response rating (0 to 10 scale, 0 is no effect, 10 is complete control)",duck salad; [2],0
same,Ducksalad plant response rating,duck salad; [3],0
same,Ducksalad plant response rating,duck salad; [4],0
same,Corn plant response rating,corn; [5],0
same,Corn plant response rating,corn; [6],0
same,"Plant response rating, Corn",corn; [7],0
same,Corn plant response rating,corn; [8],0
same,Corn plant response rating,corn; [9],0
same,Corn plant response rating (0 to 10 scale),"corn; Preemergence, Rate 250 g/ha",0
same,Corn plant response rating,corn; [10],0
same,"Plant response rating, Corn",corn; [11],0
same,Crabgrass plant response rating,crabgrass; [5],0
same,Crabgrass plant response rating,crabgrass; [6],0
same,"Plant response rating, Crabgrass",crabgrass; [7],0
same,Crabgrass plant response rating,crabgrass; [8],9
same,Crabgrass plant response rating,crabgrass; [9],9
same,Crabgrass plant response rating (0 to 10 scale),"crabgrass; Preemergence, Rate 250 g/ha",9
same,Crabgrass plant response rating,crabgrass; [10],10
same,"Plant response rating, Crabgrass",crabgrass; [11],0
same,"Plant response rating, Wild oats",wild oat; [12],0
same,Wild oats plant response rating,wild oat; [8],0
same,Wild oats plant response rating,wild oat; [9],0
same,Wild oats plant response rating (0 to 10 scale),"wild oat; Preemergence, Rate 250 g/ha",0
same,Wild oats plant response rating,wild oat; [10],0
same,"Plant response rating, Wild oats",wild oat; [13],0
same,Rape plant response rating,rape; [5],0
same,Rape plant response rating,rape; [6],0
same,"Plant response rating, Rape",rape; [7],0
same,Rape plant response rating,rape; [8],0
same,Rape plant response rating,rape; [9],0
same,Rape plant response rating (0 to 10 scale),"rape; Preemergence, Rate 250 g/ha",0
same,Rape plant response rating,rape; [10],0
same,"Plant response rating, Rape",rape; [11],0
same,"Plant response rating, Wheat",wheat; [12],0
same,Wheat plant response rating,wheat; [8],0
same,Wheat plant response rating,wheat; [9],0
same,Wheat plant response rating (0 to 10 scale),"wheat; Preemergence, Rate 250 g/ha",0
same,Wheat plant response rating,wheat; [10],0
same,"Plant response rating, Wheat",wheat; [13],0
same,B. signalgrass plant response rating,surinam grass; [5],0
same,B. signalgrass plant response rating,surinam grass; [6],0
same,"Plant response rating, B. signalgrass",surinam grass; [7],0
same,B. signalgrass plant response rating,surinam grass; [8],0
same,B. signalgrass plant response rating,surinam grass; [9],0
same,"B. signalgrass plant response rating (0 to 10 scale, 0 is no effect, 10 is complete control)","surinam grass; Preemergence, Rate 250 g/ha",0
same,B. signalgrass plant response rating,surinam grass; [10],0
same,"Plant response rating, B. signalgrass",surinam grass; [11],0
same,"Plant response rating, Sugarbeets",sugar beet; [12],0
same,Sugarbeets plant response rating,sugar beet; [8],0
same,Sugarbeets plant response rating,sugar beet; [9],0
same,Sugarbeets plant response rating (0 to 10 scale),"sugar beet; Preemergence, Rate 250 g/ha",0
same,Sugarbeets plant response rating,sugar beet; [10],2
same,"Plant response rating, Sugarbeets",sugar beet; [13],0
same,Cocklebur plant response rating,cocklebur; [5],0
same,Cocklebur plant response rating,cocklebur; [6],0
same,"Plant response rating, Cocklebur",cocklebur; [7],0
same,Cocklebur plant response rating,cocklebur; [8],0
same,Cocklebur plant response rating,cocklebur; [9],0
same,Cocklebur plant response rating (0 to 10 scale),"cocklebur; Preemergence, Rate 250 g/ha",0
same,Cocklebur plant response rating,cocklebur; [10],0
same,"Plant response rating, Cocklebur",cocklebur; [11],0
same,"Plant response rating, Redroot pigweed",pigweed; [12],0
same,Redroot pigweed plant response rating,pigweed; [8],0
same,Redroot pigweed plant response rating,pigweed; [9],0
same,Redroot pigweed plant response rating (0 to 10 scale),"pigweed; Preemergence, Rate 250 g/ha",0
same,Redroot pigweed plant response rating,pigweed; [10],8
same,"Plant response rating, Redroot pigweed",pigweed; [13],0
same,"Plant response rating, S. Flatsedge (0 to 10 scale, 0 is no effect, 10 is complete control)",smallflower flatsedge; [1],0
same,"S. Flatsedge plant response rating (0 to 10 scale, 0 is no effect, 10 is complete control)",smallflower flatsedge; [2],0
same,S. Flatsedge plant response rating,smallflower flatsedge; [3],0
same,S. Flatsedge plant response rating,smallflower flatsedge; [4],0
